Results: BindingDB's records for doi:10.1021/jm048962u (The Burnham Institute, 2005)

Target: RAC-alpha serine/threonine-protein kinase (Homo sapiens, UniProt P31749)
Assay: Z-LYTE Kinase Assy
Settings: pH 7.5; 25 °C
Excerpt: The Z-LYTE assay (Invitrogen Corporation) employs a FRET-based, coupled-enzyme format and is based on the differential sensitivity of phosphorylated and non-phosphorylated peptides to proteolytic cleavage. A site-specific protease recognizes and cleaves nonphosphorylated peptides. […] Cleavage disrupts FRET between the donor (coumarin) and acceptor (fluorescein) fluorophores on the peptide, whereas uncleaved, phosphorylated peptides maintain FRET. The ratio of donor emission to acceptor emission after excitation of the donor fluorophore at 400 nm, quantitates reaction progress.

Chain of RAC-alpha serine/threonine-protein kinase (P31749 whole entry): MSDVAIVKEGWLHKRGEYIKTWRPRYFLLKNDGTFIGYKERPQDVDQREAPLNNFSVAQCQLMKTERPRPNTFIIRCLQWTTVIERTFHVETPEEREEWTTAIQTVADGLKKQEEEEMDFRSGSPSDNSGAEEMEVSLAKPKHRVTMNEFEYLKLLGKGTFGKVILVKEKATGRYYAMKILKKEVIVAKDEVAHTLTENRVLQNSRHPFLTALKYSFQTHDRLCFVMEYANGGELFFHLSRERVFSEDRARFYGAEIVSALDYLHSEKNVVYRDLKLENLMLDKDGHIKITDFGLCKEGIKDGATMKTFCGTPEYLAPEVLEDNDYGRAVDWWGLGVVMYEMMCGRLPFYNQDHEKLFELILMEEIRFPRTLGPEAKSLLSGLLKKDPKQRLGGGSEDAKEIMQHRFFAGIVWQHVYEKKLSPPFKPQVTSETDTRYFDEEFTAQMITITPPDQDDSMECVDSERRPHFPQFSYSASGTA

Row | Compound | IC50 [µM] | Ki [µM]
1 | C=c1c(C#N)c2[nH]c(N)c(C#N)c(C)c-2c1=Cc1ccc(-c2ccc(C(=O)O)c(Cl)c2)o1 | 2.6 | 1.1
2 | C=c1c(C#N)c2[nH]c(N)c(C#N)c(C)c-2c1=Cc1ccc(-c2cccc(C(=O)O)c2)o1 [3-(5-{[(5E)-2-amino-3,7-dicyano-4,6-dimethyl-5H-cyclopenta[b]pyridin-5-ylidene]methyl}furan-2-yl)benzoic acid] | 60.2 | –
